Results published in US9125849B2, “TOMM34 peptides and vaccines including the same” (ONCOTHERAPY SCIENCE, INC., priority 2010, dated 2015).
Non-standard residues stand in square brackets, D forms with d. No end group written: not given here.

Columns and labels:
[1] = system: peptide-pulsed T2 cells; test: In vitro CTL induction, IFN-gamma ELISPOT assay; assay type: cell-based, human; conditions: CTLs induced with peptide-pulsed DCs from HLA-A*0201 positive donor, vs target cells not pulsed with peptide
Description: Monocyte-derived dendritic cells (DCs) were used as antigen-presenting cells to induce cytotoxic T lymphocyte (CTL) responses against peptides presented on human leukocyte antigen (HLA). DCs were generated in vitro as described elsewhere (Nakahara S et al., Cancer Res 2003 Jul. 15, 63(14): 4112-8). Specifically, peripheral blood mononuclear cells isolated from a normal volunteer (HLA-A*0201 positive) by Ficoll-Paque plus (Pharmacia) solution were separated by adherence to a plastic tissue culture dish (Becton Dickinson) so as to enrich them as the monocyte fraction. The monocyte-enriched population was cultured in the presence of 1000 U/ml of granulocyte-macrophage colony-stimulating factor (R&D System) and 1000 U/ml of interleukin (IL)-4 (R&D System) in AIM-V Medium (Invitrogen) containing 2% heat-inactivated autologous serum (AS). After 7 days of culture, the cytokine-induced DCs were pulsed with 20 micro-g/ml of each of the synthesized peptides in the presence of 3 micro-g/ml of beta 2-microglobulin for 3 hr at 37 degrees C. in AIM-V Medium. The generated cells appeared to express DC-associated molecules, such as CD80, CD83, CD86 and HLA class II, on their cell surfaces (data not shown). These peptide-pulsed DCs were then inactivated by X ray-irradiated (20 Gy) and mixed at a 1:20 ratio with autologous CD8+ T cells, obtained by positive selection with CD8 Positive Isolation Kit (Dynal). These cultures were set up in 48-well plates (Corning); each well contained 1.5×10^4 peptide-pulsed DCs, 3×10^5 CD8+ T cells and 10 ng/ml of IL-7 (R&D System) in 0.5 ml of AIM-V/2% AS medium. Three days later, these cultures were supplemented with IL-2 (CHIRON) to a final concentration of 20 IU/ml. On day 7 and 14, the T cells were further stimulated with the autologous peptide-pulsed DCs. The DCs were prepared each time by the same way described above. CTL was tested against peptide-pulsed T2 cells after the 3rd round of peptide stimulation on day 21 (Tanaka H et al., Br J Cancer 2001 Jan. 5, 84(1): 94-9; Umano Y et al., Br J Cancer 2001 Apr. 20, 84(8): 1052-7; Uchida N et al., Clin Cancer Res 2004 Dec. 15, 10(24): 8577-86; Suda T et al., Cancer Sci 2006 May, 97(5): 411-9; Watanabe T et al., Cancer Sci 2005 August, 96(8): 498-506).
(§1) Peptide-pulsed T2 (1×10^4/well) was prepared as stimulator cells. Cultured cells in 48 wells were used as responder cells. IFN-gamma ELISPOT assay and IFN-gamma ELISA assay were performed under manufacture procedure.

[2] = system: COS7 cells transfected with either full length of TOMM34 or HLA-A*0201; test: Specific CTL activity against control target cells; assay type: cell-based, African green monkey; conditions: control COS7 cells expressing either HLA-A*0201 or TOMM34
Description: (§2) The cDNA encoding an open reading frame of target genes or HLA-A*0201 was amplified by PCR. The PCR-amplified product was cloned into expression vector. The plasmids were transfected into COS7, which is the target genes and HLA-A*0201-null cell line, using lipofectamine 2000 (Invitrogen) according to the manufacturer's recommended procedures. After 2 days from transfection, the transfected cells were harvested with versene (Invitrogen) and used as the stimulator cells (5×10^4 cells/well) for CTL activity assay.
(§3) The established CTL line raised against TOMM34-A02-9-30 (SEQ ID NO: 1) peptide was examined for the ability to recognize target cells that express TOMM34 and HLA-A*0201 molecule. COS7 cells transfected with both the full length of TOMM34 and HLA-A*0201 gene (a specific model for the target cells that express TOMM34 and HLA-A*0201 gene) were prepared as stimulator cells, and COS7 cells transfected with either full length of TOMM34 or HLA-A*0201 were used as the controls.

[3] = system: COS7 cells transfected with both TOMM34 and HLA-A*0201; test: Specific CTL activity against target cells expressing TOMM34 and HLA-A*0201; assay type: cell-based, African green monkey; conditions: COS7 cells expressing both TOMM34 and HLA-A*0201; listed as TOMM34-A02-9-30
Description: as §2, §3

[4] = system: peptide-pulsed T2 cells; test: CTL line activity, IFN-gamma ELISA; assay type: cell-based, human; conditions: CTL line stimulated with peptide; target cells pulsed with peptide vs without peptide pulse
Procedure: CTLs were expanded in culture using the method similar to the one described by Riddell et al. (Walter E A et al., N Engl J Med 1995 Oct. 19, 333(16): 1038-44; Riddell S R et al., Nat Med 1996 February, 2(2): 216-23). A total of 5×10^4 CTLs were suspended in 25 ml of AIM-V/5% AS medium with 2 kinds of human B-lymphoblastoid cell lines, inactivated by Mitomycin C, in the presence of 40 ng/ml of anti-CD3 monoclonal antibody (Pharmingen). One day after initiating the cultures, 120 IU/ml of IL-2 were added to the cultures. The cultures were fed with fresh AIM-V/5% AS medium containing 30 IU/ml of IL-2 on days 5, 8 and 11 (Tanaka H et al., Br J Cancer 2001 Jan. 5, 84(1): 94-9; Umano Y et al., Br J Cancer 2001 Apr. 20, 84(8): 1052-7; Uchida N et al., Clin Cancer Res 2004 Dec. 15, 10(24): 8577-86; Suda T et al., Cancer Sci 2006 May, 97(5): 411-9; Watanabe T et al., Cancer Sci 2005 August, 96(8): 498-506).
as §1

[5] = system: peptide-pulsed T2 cells; test: CTL clone activity, IFN-gamma ELISA; assay type: cell-based, human; conditions: CTL clone established by limiting dilution from the CTL line; target cells pulsed with peptide; listed as TOMM34-A02-9-30
Procedure: The dilutions were made to have 0.3, 1, and 3 CTLs/well in 96 round-bottomed micro titer plate (Nalge Nunc International). CTLs were cultured with 1×10^4 cells/well of 2 kinds of human B-lymphoblastoid cell lines, 30 ng/ml of anti-CD3 antibody, and 125 U/ml of IL-2 in a total of […] of AIM-V Medium containing 5% AS. 50 micro-1/well of IL-2 were added to the medium 10 days later so to reach a final concentration of 125 U/ml IL-2. CTL activity was tested on the 14th day, and CTL clones were expanded using the same method as described above (Uchida N et al., Clin Cancer Res 2004 Dec. 15, 10(24): 8577-86; Suda T et al., Cancer Sci 2006 May, 97(5): 411-9; Watanabe T et al., Cancer Sci 2005 August, 96(8): 498-506).
as §1

Question: For LLCSNLESA [SEQ ID NO: 5], which “peptide specific CTL activity (IFN-gamma production) by IFN-gamma ELISPOT” value (shortened to “peptide specific CTL activity”) [1] is on record?
Answer: potent IFN-gamma production

Question: What does the source list for ALYGRALRV [SEQ ID NO: 1]?
Answer: specific CTL activity of the CTL line [2]: no significant specific CTL activity was detected; specific CTL activity of the CTL line [3]: potent CTL activity; IFN-gamma production of the CTL line by IFN-gamma ELISA [4]: potent IFN-gamma production; IFN-gamma production of the CTL clone by IFN-gamma ELISA [5]: potent IFN-gamma production; peptide specific CTL activity (IFN-gamma production) by IFN-gamma ELISPOT [1]: potent IFN-gamma production

Question: Which “peptide specific CTL activity” value [1] does the source give for “ALYGrALRVL (ALYG[code r]ALRVL; not fully specified; printed as ALYGrALRVL) [SEQ ID NO: 31]” here?
Answer: potent IFN-gamma production

Question: With “LLCSnLESAT (LLCS[code n]LESAT; not fully specified; printed as LLCSnLESAT) [SEQ ID NO: 32]” as the substance, how does the “peptide specific CTL activity” value [1] read?
Answer: potent IFN-gamma production

Question: For “KLPSiPLVPV (KLPS[code i]PLVPV; not fully specified; printed as KLPSiPLVPV) [SEQ ID NO: 21]”, which “peptide specific CTL activity” value ([1]; listed as TOMM34-A02-10-143) is on record?
Answer: specific IFN-gamma production was not observed
